# Columns and labels:
# [1] = tested on: IMQ-induced psoriasis model in C57BL/6 Mice; test: IMQ induced psoriatic plaque model, topical hydrogel treatment; type: in vivo
# Procedure: Hair was shaved along the back of the anesthetized mouse from shoulder to hip by using electric clippers or depilatory cream. Psoriasis-like lesions were induced by a daily topical application of a commercially available IMQ cream (62.5 mg/day for 5 days D1-D5) on the shaved back skin of C57BL/6 mice.
# Animals were randomly assigned to the different groups after reaching a maximum score of 4 with respect to erythema, scale, and thickness. Animals that didn't score 4 were excluded from the experiment. Sham psoriasis animals were administered with Vaseline cream; IMQ animals, were only challenged with imiquimod cream, and IMQ animals were treated with a hydrogel that was topically applied using a nylon mesh for even distribution of the hydrogel, for the whole duration of the experiment.
# To score the severity of inflammation of the back skin, an objective scoring system was developed based on the clinical Psoriasis Area and severity index (PASI), except that for the mouse model the affected skin area is not taken into account in the overall score. Erythema, scaling, and thickening was scored independently on a scale from 0 to 4:0, none; 1, slight; 2, moderate; 3, marked; 4, very marked. The level of erythema was scored using a scoring table with red taints. The cumulative score (erythema plus scaling plus thickening) served as a measure of the severity of inflammation (scale 0-12).
# • 0: None; 1: Slight; 2: Moderate; 3: Marked; 4: Very Marked.
# One of the important characteristic feature of psoriasis and the psoriasis-like skin inflammation was abnormal increase of epidermal skin thickness which was measured by vernier calipers.
# The IMQ induced, skin tissue sections (H&E stain) were collected after ten days (D1-D10) from all groups.
# [2] = tested on: inflammatory markers (IL-17, IL-1β and IL-23) in IMQ-induced differentiated HaCaT cells; test: In vitro IMQ-induced psoriatic model, inflammatory markers in conditioned media; type: cell-based; conditions: IMQ 100 μM, formulation in culture media 48 hr, mean ± S.D.
# From the text: This study was designed to investigate the effect of a Metf+SMR and Metf+SMR hydro-gel formulation on an IMQ-induced psoriasis-like mouse model. The composition of the hydrogel formulation prepared by using 1.5% crosslinked polyacrylic acid polymer and 1.5% triethanolamine is provided. In doing so, the Applicant expected to obtain supportive evidence of a role for the formulation in treating psoriasis. For that the Applicant has developed hydrogel-based formulations: 1. Metformin and 2. Metformin-silybin (Metf+SMR) 3. Metformin-curcumin (Metf+CMR) and studied invitro cell toxicity in A431 cells by MTT assay and invitro IMQ-induced psoriatic modal using HaCaT cells and determined the inflammatory markers (IL-1β, IL-23 and IL-17).
# To set up an efficient and consistent model for psoriasis in vitro, differentiated HaCaT cells were used to screen our test formulations. HaCaT cells were incubated with 2 mM calcium chloride (CaCl2) to achieve differentiation. Induction of psoriatic-like inflammation was achieved by treating the cells with Imiquimod (IMQ) ([…]). The differentiation and inflammation were confirmed by microscopic images. After inflammation, the cells were treated with different formulation dissolved in culture media and incubated for 48 hr. Clobetasol cream formulation was used as a positive control. After incubation, the conditioned media was collected and used for estimation of inflammatory markers (IL-17, IL-1β and IL-23).
compound,measurement,setting,value
"CC(C)Cn1cnc2c(N)nc3ccccc3c21 [IMQ, Imiquimod]",epidermal skin thickness with IMQ only,"[1]; increased from 1.15 mm, IMQ only applied topically",2.22 mm
same,cumulative score on day 5,"[1]; scale 0-12, day 5, IMQ only",12
same,cumulative score (erythema+scaling+skin thickness) on day 10,"[1]; scale 0-12, day 10",12
same,spleen size (spleen index),[1]; treatment D6-D10,15 mg/g
same,"IL-1β (pg/mL), mean concentration",[2],93.63 ± 2.87 pg/mL
same,"IL-17 (pg/mL), mean concentration",[2],99.82 ± 3.03 pg/mL
same,"IL-23 (pg/mL), mean concentration",[2],98.73 ± 3.27 pg/mL
